# What was measured:
# Experiment in all cases: Eurofins kinase panel
# Assay type in all cases: biochemical
# Conditions in all cases: read-out: Inhibition rate (%)
# ASK1(h) = molecular target: T1, ASK1(h) (Homo sapiens, UniProt Q99683)
# T1 construct: purchased Eurofins (KinaseProfiler)
# T1 sequence (Q99683 1-1374): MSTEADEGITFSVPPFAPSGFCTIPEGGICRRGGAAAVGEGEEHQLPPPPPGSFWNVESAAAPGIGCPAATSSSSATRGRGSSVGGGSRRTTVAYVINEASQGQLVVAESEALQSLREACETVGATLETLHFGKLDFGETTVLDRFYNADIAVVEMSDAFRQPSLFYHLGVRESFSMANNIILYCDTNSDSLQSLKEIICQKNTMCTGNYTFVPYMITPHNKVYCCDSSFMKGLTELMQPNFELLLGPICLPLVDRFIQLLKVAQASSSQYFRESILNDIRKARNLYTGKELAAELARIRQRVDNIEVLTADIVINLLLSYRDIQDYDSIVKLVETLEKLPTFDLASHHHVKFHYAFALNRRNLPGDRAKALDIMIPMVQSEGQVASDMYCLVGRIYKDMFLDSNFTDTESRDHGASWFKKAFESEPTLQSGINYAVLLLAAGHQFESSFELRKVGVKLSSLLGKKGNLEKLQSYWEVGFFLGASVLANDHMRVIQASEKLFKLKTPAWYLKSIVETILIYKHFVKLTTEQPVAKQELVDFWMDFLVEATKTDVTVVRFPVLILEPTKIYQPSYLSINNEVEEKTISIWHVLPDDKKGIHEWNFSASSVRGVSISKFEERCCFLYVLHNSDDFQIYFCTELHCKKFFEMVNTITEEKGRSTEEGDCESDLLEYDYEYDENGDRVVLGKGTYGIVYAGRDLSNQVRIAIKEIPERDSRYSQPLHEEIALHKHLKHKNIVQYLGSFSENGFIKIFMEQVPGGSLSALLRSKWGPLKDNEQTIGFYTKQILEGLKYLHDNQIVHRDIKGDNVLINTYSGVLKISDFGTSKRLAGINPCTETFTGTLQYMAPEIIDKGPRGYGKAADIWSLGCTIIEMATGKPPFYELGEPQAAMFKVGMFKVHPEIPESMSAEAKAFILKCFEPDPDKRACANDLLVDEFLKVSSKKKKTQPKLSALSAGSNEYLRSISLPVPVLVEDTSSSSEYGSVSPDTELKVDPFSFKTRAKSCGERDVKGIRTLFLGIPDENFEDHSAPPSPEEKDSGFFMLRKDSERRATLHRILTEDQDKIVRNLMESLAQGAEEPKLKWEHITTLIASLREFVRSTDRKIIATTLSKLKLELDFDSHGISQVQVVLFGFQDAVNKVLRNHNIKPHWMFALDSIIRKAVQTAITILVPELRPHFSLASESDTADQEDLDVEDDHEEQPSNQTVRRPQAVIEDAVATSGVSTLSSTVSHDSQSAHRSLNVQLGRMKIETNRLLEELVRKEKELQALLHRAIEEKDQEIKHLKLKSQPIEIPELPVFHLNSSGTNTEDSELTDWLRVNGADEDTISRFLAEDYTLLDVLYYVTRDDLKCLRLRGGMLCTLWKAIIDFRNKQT
# TBK1(h) = molecular target: T2, TBK1(h) (Homo sapiens, UniProt Q9UHD2)
# T2 construct: purchased Eurofins (KinaseProfiler)
# T2 sequence (Q9UHD2 1-729): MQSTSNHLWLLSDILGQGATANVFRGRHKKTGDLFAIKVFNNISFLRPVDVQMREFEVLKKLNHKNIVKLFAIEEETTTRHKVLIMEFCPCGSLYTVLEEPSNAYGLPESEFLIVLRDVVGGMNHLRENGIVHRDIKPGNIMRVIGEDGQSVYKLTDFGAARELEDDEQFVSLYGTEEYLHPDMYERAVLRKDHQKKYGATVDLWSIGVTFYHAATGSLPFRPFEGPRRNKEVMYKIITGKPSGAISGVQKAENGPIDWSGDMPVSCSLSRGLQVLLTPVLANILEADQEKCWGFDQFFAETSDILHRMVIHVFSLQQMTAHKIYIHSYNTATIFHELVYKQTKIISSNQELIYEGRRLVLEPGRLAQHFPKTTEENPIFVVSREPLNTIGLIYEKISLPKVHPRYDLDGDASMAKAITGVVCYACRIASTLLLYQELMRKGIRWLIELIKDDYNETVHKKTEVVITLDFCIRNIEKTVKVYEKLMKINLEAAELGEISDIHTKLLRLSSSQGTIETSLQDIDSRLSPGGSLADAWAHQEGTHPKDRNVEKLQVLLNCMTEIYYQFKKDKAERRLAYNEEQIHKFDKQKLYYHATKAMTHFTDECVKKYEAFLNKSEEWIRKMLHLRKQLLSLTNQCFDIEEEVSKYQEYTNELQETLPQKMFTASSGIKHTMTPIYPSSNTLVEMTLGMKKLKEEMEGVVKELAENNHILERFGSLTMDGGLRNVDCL
# NDR2(h) = molecular target: T3, NDR2(h) (Homo sapiens, UniProt Q9Y2H1)
# T3 construct: purchased Eurofins (KinaseProfiler)
# NLK(h) = molecular target: T4, NLK(h) (Homo sapiens, UniProt Q9UBE8)
# T4 construct: purchased Eurofins (KinaseProfiler)
# T4 sequence (Q9UBE8 1-527): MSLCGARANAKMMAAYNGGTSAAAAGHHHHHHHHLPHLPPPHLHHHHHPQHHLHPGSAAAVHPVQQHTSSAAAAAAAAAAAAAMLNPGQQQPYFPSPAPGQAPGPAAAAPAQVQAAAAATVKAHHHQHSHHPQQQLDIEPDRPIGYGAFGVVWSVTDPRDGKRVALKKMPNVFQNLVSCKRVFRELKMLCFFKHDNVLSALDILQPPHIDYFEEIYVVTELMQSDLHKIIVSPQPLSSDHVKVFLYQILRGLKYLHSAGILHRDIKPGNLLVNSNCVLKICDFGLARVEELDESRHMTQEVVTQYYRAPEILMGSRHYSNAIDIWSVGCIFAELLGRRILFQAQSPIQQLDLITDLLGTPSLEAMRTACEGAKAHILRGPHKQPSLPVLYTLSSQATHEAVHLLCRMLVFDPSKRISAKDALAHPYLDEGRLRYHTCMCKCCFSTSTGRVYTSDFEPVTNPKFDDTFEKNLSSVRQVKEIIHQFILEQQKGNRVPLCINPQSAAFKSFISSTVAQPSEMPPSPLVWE
# T3 sequence (Q9Y2H1 whole entry): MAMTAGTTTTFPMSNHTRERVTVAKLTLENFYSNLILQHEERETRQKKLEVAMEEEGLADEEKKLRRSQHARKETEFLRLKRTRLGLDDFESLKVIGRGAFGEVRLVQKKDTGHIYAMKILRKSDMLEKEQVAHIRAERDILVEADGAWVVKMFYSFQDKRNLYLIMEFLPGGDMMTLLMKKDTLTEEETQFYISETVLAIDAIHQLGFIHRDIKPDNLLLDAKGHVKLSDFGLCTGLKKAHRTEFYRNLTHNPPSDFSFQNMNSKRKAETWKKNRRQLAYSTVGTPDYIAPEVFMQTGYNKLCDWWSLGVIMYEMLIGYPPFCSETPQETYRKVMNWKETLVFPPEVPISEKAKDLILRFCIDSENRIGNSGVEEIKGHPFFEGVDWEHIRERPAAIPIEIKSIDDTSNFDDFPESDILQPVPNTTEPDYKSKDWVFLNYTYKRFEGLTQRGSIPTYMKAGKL
smiles,measurement,setting,value
COc1cc(OC)c(Cl)c(-c2ccc3c(NC(=O)c4ccc(N5CCNC(C)(C)C5)cc4)n[nH]c3n2)c1Cl [3D185],inhibition at 0.01 µM,ASK1(h); 10 nM,-6%
same,inhibition at 0.1 µM,ASK1(h); 100 nM,-7%
same,inhibition at 1 µM,ASK1(h); 1000 nM,-2%
same,inhibition at 0.01 µM,TBK1(h); 10 nM,-6%
same,inhibition at 0.1 µM,TBK1(h); 100 nM,-2%
same,inhibition at 1 µM,TBK1(h); 1000 nM,-1%
same,inhibition at 0.01 µM,NDR2(h); 10 nM,2%
same,inhibition at 0.1 µM,NDR2(h); 100 nM,-8%
same,inhibition at 1 µM,NDR2(h); 1000 nM,1%
same,inhibition at 0.01 µM,NLK(h); 10 nM,0%
same,inhibition at 0.1 µM,NLK(h); 100 nM,-6%
same,inhibition at 1 µM,NLK(h); 1000 nM,3%

# — article PMC6704710, “Preclinical evaluation of 3D185, a novel potent inhibitor of FGFR1/2/3 and CSF-1R, in FGFR-dependent and macrophage-dominant cancer models” (Journal of Experimental & Clinical Cancer Research : CR, 2019)
